How the values were obtained:
[1] = target: Recombinant full length human OGA enzyme (Homo sapiens (Human), UniProt O60502); experiment: OGA Enzyme Inhibition Biochemical Assay
Description: Recombinant full length human OGA enzyme was purchased from Origene. 4-MUGlcNAc substrate was purchased from Sigma. All other reagents were purchased from Sigma or Fisher. Assay buffer consists of the McIlvaine buffer system, pH 6.4 (0.2M Na2HPO4 mixed with 0.1M citric acid) and 0.01% BSA. […] Reactions were incubated for 90 minutes at room temperature and quenched with 40 μl of 3M glycine, pH 10 and read on a Perkin Elmer Envision plate reader (Ex: 355 nm/Em: 460 nm). Compounds were tested with a 10-point dose-response starting from 20 μM with a 4-fold dilution. Data was fit using GraphPad Prism using a 4-parameter fit with variable slope.

[2] = target: OGA (S400 O-GLCNAC), HEK-293T cells transfected with Tau-V5 (Homo sapiens (Human), UniProt O60502); experiment: Cellular OGA-Tau MSD Assay; assay type: cell-based; conditions: HEK-293T cells, Tau-S400-GlcNAc MSD readout
Sequence of OGA (S400 O-GLCNAC), HEK-293T cells transfected with Tau-V5 (O60502 whole entry): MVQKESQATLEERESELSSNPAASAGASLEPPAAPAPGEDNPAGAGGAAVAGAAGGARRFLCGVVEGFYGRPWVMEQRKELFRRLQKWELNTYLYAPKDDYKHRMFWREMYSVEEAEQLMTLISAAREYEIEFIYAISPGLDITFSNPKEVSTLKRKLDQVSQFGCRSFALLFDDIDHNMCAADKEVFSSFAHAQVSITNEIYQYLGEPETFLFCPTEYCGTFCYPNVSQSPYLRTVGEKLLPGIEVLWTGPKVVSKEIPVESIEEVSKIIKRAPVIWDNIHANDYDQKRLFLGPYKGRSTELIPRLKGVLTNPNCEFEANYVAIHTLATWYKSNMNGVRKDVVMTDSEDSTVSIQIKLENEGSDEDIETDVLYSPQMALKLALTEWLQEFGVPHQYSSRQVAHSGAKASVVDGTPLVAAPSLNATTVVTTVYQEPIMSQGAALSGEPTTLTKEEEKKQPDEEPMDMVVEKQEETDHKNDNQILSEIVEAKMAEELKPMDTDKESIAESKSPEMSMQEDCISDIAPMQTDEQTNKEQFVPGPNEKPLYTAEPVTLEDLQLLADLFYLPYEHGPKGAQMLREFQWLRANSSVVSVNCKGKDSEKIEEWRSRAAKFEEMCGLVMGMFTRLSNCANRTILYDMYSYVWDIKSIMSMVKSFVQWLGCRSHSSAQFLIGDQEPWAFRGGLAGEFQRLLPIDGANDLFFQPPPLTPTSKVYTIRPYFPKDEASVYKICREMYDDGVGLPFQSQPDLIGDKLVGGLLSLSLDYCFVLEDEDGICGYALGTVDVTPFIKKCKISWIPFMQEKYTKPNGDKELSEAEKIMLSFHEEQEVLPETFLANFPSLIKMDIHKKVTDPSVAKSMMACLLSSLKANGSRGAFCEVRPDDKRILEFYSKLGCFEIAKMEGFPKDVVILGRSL
Description: HEK-293T cells were transfected with […] and Tau-V5 plasmids using Lipofectamine and grown overnight. Next day, the cells were collected and re-plated at 1×10^5 cells per well in 96 well plates. Cells were incubated for 4 hr at 37° C., before compounds were added at 1 uM, with 3-fold dilutions in a 10-point titration. Cell plates were incubated with compounds overnight at 37° C. The next day media was removed from wells by gentle aspiration and 120 ul of 1× Cell Lysis buffer mixed with protease and phosphatase cocktail added to each well. A freeze thaw was performed at -80° C., then mixed before transferring 50 ul to MSD plates coated with V5-tag antibody to capture Tau. MSD Plates were incubated overnight at 4° C., on a plate shaker. The following day, plates were washed and incubated with Tau-[…]-GlcNAc antibody for 2 hr and then developed with rabbit Sulfo-tag antibody. Final read out was carried out on an MSD 600 reader. The data was analyzed using Graph Pad or Genedata, the data was normalized and % activity versus log of compound concentration was plotted. The IC50 values were obtained from a 4 parameter fit.

[3] = 1 nM OGA, 100 μM 4-MUGlcNAc, pH 6.4

Sequence of Recombinant full length human OGA enzyme (O60502 whole entry): as above

## CC(=O)Nc1ncc(CN2CC[C@H](Oc3ccc(F)cn3)C2)s1 [Example 1-7, (S)—N-(5-((3-((5-fluoropyridin-2-yl)oxy)pyrrolidin-1-yl)methyl)thiazol-2-yl)acetamide]
[1]; [3]
  IC50: > 1000 nM
[1]; repeated assay, value marked with asterisk (*)
  IC50: 2000 nM

## COc1cc(O[C@H]2C[C@H](C)N(Cc3sc(NC(C)=O)nc3F)C2)ncn1 [Example 1-30, N-(4-fluoro-5-(((2S,4S)-4-((6-methoxypyrimidin-4-yl)oxy)-2-methylpyrrolidin-1-yl)methyl)thiazol-2-yl)acetamide]
[1]; [3]
  IC50: 15 nM
[2]
  IC50: 21 nM

## CC(=O)Nc1ncc(CN2C[C@H](Oc3ccc(F)cn3)CC[C@@H]2C)s1 [Example 1-4, N-(5-(((2S,5R)-5-((5-fluoropyridin-2-yl)oxy)-2-methylpiperidin-1-yl)methyl)thiazol-2-yl)acetamide]
[1]; [3]
  IC50: 1.2 nM
[2]
  IC50: 6 nM

## CC(=O)Nc1ncc(CN2C[C@H](Oc3cc(=O)n(C)cn3)C[C@@H]2C)s1 [Example 1-70, N-(5-(((2S,4R)-2-methyl-4-((1-methyl-6-oxo-1,6-dihydropyrimidin-4-yl)oxy)pyrrolidin-1-yl)methyl)thiazol-2-yl)acetamide]
[2]
  IC50: 5 nM

## CC(=O)Nc1ncc(CN2C[C@H](Oc3cc(C(F)(F)F)ncn3)C[C@@H]2C)s1 [Example 1-79, N-(5-(((2S,4R)-2-methyl-4-((6-(trifluoromethyl)pyrimidin-4-yl)oxy)pyrrolidin-1-yl)methyl)thiazol-2-yl)acetamide]
[1]; [3]
  IC50: 11 nM
[2]
  IC50: 41 nM

## [2H][C@@]1(Oc2cc(OC)ncn2)C[C@H](C)N(Cc2sc(NC(C)=O)nc2F)C1 (single isomer, unassigned) [Example 1-165]
[1]; [3]
  IC50: < 1 nM
[2]
  IC50: 2 nM

## COc1cc(O[C@H]2CCN(Cc3cnc(NC(C)=O)s3)C2)ncn1 [Example 1-36, (S)—N-(5-((3-((6-methoxypyrimidin-4-yl)oxy)pyrrolidin-1-yl)methyl)thiazol-2-yl)acetamide]
[1]; [3]
  IC50: 1700 nM

## CNc1cc(O[C@@H]2C[C@H](C)N(Cc3cnc(NC(C)=O)s3)C2)ncn1 [Example 1-137, N-(5-(((2S,4R)-2-methyl-4-((6-(methylamino)pyrimidin-4-yl)oxy)pyrrolidin-1-yl)methyl)thiazol-2-yl)acetamide]
[1]; [3]
  IC50: < 1 nM
[2]
  IC50: 2 nM

## COCCN(C)c1ccnc(O[C@@H]2C[C@H](C)N(Cc3sc(NC(C)=O)nc3F)C2)c1 [Example 1-145, N-(4-fluoro-5-(((2S,4R)-4-((4-((2-methoxyethyl) (methyl)amino)pyridin-2-yl)oxy)-2-methylpyrrolidin-1-yl)methyl)thiazol-2-yl)acetamide]
[1]; [3]
  IC50: < 1 nM

## CC(=O)Nc1nc(F)c(CN2C[C@H](Oc3cc(C)c(F)cn3)C[C@@H]2C)s1 [Example 1-117, N-(4-fluoro-5-(((2S,4R)-4-((5-fluoro-4-methylpyridin-2-yl)oxy)-2-methylpyrrolidin-1-yl)methyl)thiazol-2-yl)acetamide]
[1]; [3]
  IC50: < 1 nM

## COCCOc1ccnc(O[C@@H]2C[C@H](C)N(Cc3sc(NC(C)=O)nc3F)C2)c1 [Example 1-147, N-(4-fluoro-5-(((2S,4R)-4-((4-(2-methoxyethoxy)pyridin-2-yl)oxy)-2-methylpyrrolidin-1-yl)methyl)thiazol-2-yl)acetamide]
[1]; [3]
  IC50: < 1 nM

## COCCOc1cnc(O[C@@H]2C[C@H](C)N(Cc3sc(NC(C)=O)nc3F)C2)cn1 [Example 1-144, N-(4-fluoro-5-(((2S,4R)-4-((5-(2-methoxyethoxy)pyrazin-2-yl)oxy)-2-methylpyrrolidin-1-yl)methyl)thiazol-2-yl)acetamide]
[1]; [3]
  IC50: < 1 nM

## COc1cc(O[C@H]2CCN(Cc3sc(NC(C)=O)nc3F)C2)ncn1 [Example 1-27, (S)—N-(4-fluoro-5-((3-((6-methoxypyrimidin-4-yl)oxy)pyrrolidin-1-yl)methyl)thiazol-2-yl)acetamide]
[1]; [3]
  IC50: 850 nM

## CC(=O)Nc1nc(F)c(CN2C[C@H](Oc3ccc(N4CCOCC4)cn3)C[C@@H]2C)s1 [Example 1-146, N-(4-fluoro-5-(((2S,4R)-2-methyl-4-((5-morpholinopyridin-2-yl)oxy)pyrrolidin-1-yl)methyl)thiazol-2-yl)acetamide]
[1]; [3]
  IC50: < 1 nM

— patent US20240308995A1, “O-GLYCOPROTEIN-2-ACETAMIDO-2-DEOXY-3-D-GLUCOPYRANOSIDASE INHIBITORS” (BIOGEN MA INC., priority 2018, published 2024)
